# Data taken from patent US9713614B2, “Combination of HMG-CoA reductase inhibitors with phosphodiesterase 4 inhibitors for the treatment of inflammatory pulmonary diseases” (TAKEDA GMBH, priority 2006, dated 2017).
# Tested on: LPS-induced systemic TNFα release
# Experiment: Inhibition of LPS-induced systemic TNFα release in rats
# Type: in vivo, rat
# Details: for ED50: Rattus norvegicus, male Sprague Dawley rats, by gavage 1 h before i.v. LPS 0.1 mg/kg, plasma TNFα by ELISA 90 min after LPS, from dose-response curves
# Protocol: Pharmacology: Synergistic Inhibition of LPS-Induced Systemic TNFα Release in Rats by a Combination of ATORVASTATIN Hemi-Calcium Sesqui-Hydrate and 2-{4-[(4aS,8aR)-4-(3,4-dimethoxyphenyl)-1-oxo-4a,5,8,8a-tetrahydro-1H-phthalazin-2-yl]-piperidin-1-yl}-acetamide (COMPOUND A) Animals:
# male Sprague Dawley rats 200-280 g
# ATORVASTATIN hemi-calcium sesqui-hydrate (Alexis Pharmaceuticals, San Diego, Calif., USA) and COMPOUND A (ALTANA Pharma, Konstanz, Germany).
# Drugs were administered by gavage as a methocel/polyethylenglycol 400 suspension 1 h before intravenous administration of LPS (0.1 mg/kg). Euthanasia was induced 90 minutes later by injecting pentobarbital (48 mg/kg) and heparin (1,000 U/kg). Heparinized blood was obtained by heart puncture. Blood was centrifuged (21,000×g, 4° C., 15 min), and plasma samples were kept frozen at −80° C. until determination of TNFα levels by a commercially available ELISA kit (Quantakine®M, Rat TNFα immunoassay, R&D, MN, USA).
# All data are given as mean±SEM. Significances were calculated on the primary TNFα concentrations in comparison with the LPS-challenged control group using ANOVA with subsequent Dunnett's Test provided by GraphPadPrism software package. Differences with p<0.05 were considered significant. Dose-response curves were calculated by non-linear regression analysis within fixed limits of 0 to 100% inhibition. 50% inhibitory dose (ED50) values were derived from dose-response curves.
SMILES,"decrease of LPS-induced TNFα versus placebo (ATORVASTATIN hemi-calcium sesqui-hydrate alone 0.5 mg/kg by gavage, rats, no significant effect)",ED50,"increase of LPS-induced TNFα versus placebo (COMPOUND A alone 0.013 mg/kg by gavage, rats, no significant effect)"
"CC(C)c1c(C(=O)Nc2ccccc2)c(-c2ccccc2)c(-c2ccc(F)cc2)n1CC[C@@H](O)C[C@H](O)CC(=O)O [ATORVASTATIN hemi-calcium sesqui-hydrate, (3S,5R)-7-[3-(anilinocarbonyl)-5-(4-fluorophenyl)-2-isopropyl-4-phenyl-1H-pyrrol-1-yl]-3,5-dihydroxyheptanoic acid]",11%,23 mg/kg,
"COc1ccc(C2=NN(C3CCN(CC(N)=O)CC3)C(=O)[C@@H]3CC=CC[C@H]23)cc1OC [COMPOUND A, 2-{4-[(4aS,8aR)-4-(3,4-dimethoxyphenyl)-1-oxo-4a,5,8,8a-tetrahydro-1H-phthalazin-2-yl]-piperidin-1-yl}-acetamide]",,0.14 mg/kg,1%
